SMILES strings stand for the structures.

What all share (assay type): functional
Experiment [1] relates to HeLa. Briefly: Antiproliferative activity against human HeLa cells after 48 hrs by sulforhodamine B assay.
For experiment [2], the system named is HBL-100. Put plainly: Antiproliferative activity against human HBL100 cells after 48 hrs by sulforhodamine B assay. Conditions: HBL-100, 48 h.
For experiment [3], the system named is A549. Briefly: Antiproliferative activity against human A549 cells after 48 hrs by sulforhodamine B assay. Particulars: A549, 48 h.
Experiment [4] deals with SW1573. Briefly: Antiproliferative activity against human SW1573 cells after 48 hrs by sulforhodamine B assay. Particulars: SW1573, 48 h.
The subject of experiment [5] is T47D. Briefly: Antiproliferative activity against human T47D cells after 48 hrs by sulforhodamine B assay.
Experiment [6] deals with WiDr. Briefly: Antiproliferative activity against human WiDr cells after 48 hrs by sulforhodamine B assay.

As for `COc1cc(C2=NOC(CO[C@@H]3O[C@H](CSc4ncn[nH]4)[C@H]4OC5(CCCC5)O[C@@H]34)C2)cc(OC)c1OC` (stereo not given in full), the GI50 in experiment [1] is 38 µM; in experiment [2], 43 µM; in experiment [3], 37 µM; in experiment [4] it was greater than 100 µM; in experiment [5], 55 µM; in experiment [6], 53 µM.

For the compound `CC1(C)O[C@H]2[C@H](OCc3noc(-c4ccc([N+](=O)[O-])cc4)n3)O[C@H](CSc3ncn[nH]3)[C@H]2O1`, the GI50 in experiment [1] was 89 µM; in experiment [2], greater than 100 µM; in experiment [3] it was 90 µM; in experiment [4], greater than 100 µM; in experiment [5], greater than 100 µM; in experiment [6], greater than 100 µM.

`Clc1ccc(-c2nc(CO[C@@H]3O[C@H](CSc4ncn[nH]4)[C@H]4OC5(CCCC5)O[C@@H]34)no2)cc1`: the GI50 turned out to be 14 µM in experiment [1]; 24 µM in experiment [2]; 13 µM in experiment [3]; 10 µM in experiment [4]; 10 µM in experiment [5]; 4.5 µM in experiment [6].

On to `COc1cc(-c2cc(CO[C@@H]3O[C@H](CSc4ncn[nH]4)[C@H]4OC5(CCCC5)O[C@@H]34)on2)cc(OC)c1OC`, for which the concentration for 50% growth inhibition (GI50) in experiment [1] worked out at 67 µM; in experiment [2] it was 87 µM; in experiment [3], 59 µM; in experiment [4], 97 µM; in experiment [5], 94 µM; in experiment [6], 74 µM.

For `CC1(C)O[C@H]2[C@H](OCc3noc(-c4ccc([N+](=O)[O-])cc4)n3)O[C@H](CSc3nnc(N)s3)[C@H]2O1`, the GI50 in experiment [1], in experiment [2], in experiment [3], in experiment [4], in experiment [5] and in experiment [6] was greater than 100 µM in each case.

Consider `O=[N+]([O-])c1ccc(-c2nc(CO[C@@H]3O[C@H](CO)[C@H]4OC5(CCCC5)O[C@@H]34)no2)cc1`, for which the GI50 is 15 µM in experiment [1]; 17 µM in experiment [2]; 32 µM in experiment [3]; 27 µM in experiment [4]; 50 µM in experiment [5]; 41 µM in experiment [6].

For `CC(=O)OC[C@H]1O[C@@H](OCc2noc(-c3ccc([N+](=O)[O-])cc3)n2)[C@@H]2OC3(CCCC3)O[C@@H]21`, the GI50 was determined as 17 µM in experiment [1]; 23 µM in experiment [2]; 29 µM in experiment [3]; 29 µM in experiment [4]; 52 µM in experiment [5]; 36 µM in experiment [6].

On to `Cc1ccc(S(=O)(=O)OC[C@H]2O[C@@H](OCc3noc(-c4ccc([N+](=O)[O-])cc4)n3)[C@@H]3OC4(CCCC4)O[C@@H]32)cc1`, for which the GI50 in experiment [1], in experiment [2], in experiment [3], in experiment [4], in experiment [5] and in experiment [6] was greater than 100 µM each time.

Regarding `Nc1nnc(SC[C@H]2O[C@@H](OCc3noc(-c4ccc([N+](=O)[O-])cc4)n3)[C@@H]3OC4(CCCC4)O[C@@H]32)s1`, the GI50 was 28 µM in experiment [1]; 26 µM in experiment [2]; 14 µM in experiment [3]; 16 µM in experiment [4]; 19 µM in experiment [5]; 26 µM in experiment [6].

For the compound `COc1cc(-c2nc(CO[C@@H]3O[C@H](CSc4nnc(N)s4)[C@H]4OC5(CCCC5)O[C@@H]34)no2)cc(OC)c1OC`, the GI50 in experiment [1] stood at 31 µM; in experiment [2] it was 33 µM; in experiment [3], 36 µM; in experiment [4], 38 µM; in experiment [5] it was 42 µM; in experiment [6] it was 41 µM.

Regarding `Nc1nnc(SC[C@H]2O[C@@H](OCc3noc(-c4ccc(Cl)cc4)n3)[C@@H]3OC4(CCCC4)O[C@@H]32)s1`, the GI50 in experiment [1] was determined as 16 µM; in experiment [2] it was 30 µM; in experiment [3], 15 µM; in experiment [4], 17 µM; in experiment [5], 18 µM; in experiment [6] it was 15 µM.

In the case of `CC1(C)O[C@H]2[C@H](OCc3noc(-c4ccc([N+](=O)[O-])cc4)n3)O[C@H](CO)[C@H]2O1`, the GI50 is 99 µM in experiment [1]; 99 µM in experiment [2]; 99 µM in experiment [3]; 60 µM in experiment [4]; greater than 100 µM in experiment [5]; greater than 100 µM in experiment [6].

As to `COc1cc(-n2cc(CO[C@@H]3O[C@H](CSc4ncn[nH]4)[C@H]4OC5(CCCC5)O[C@@H]34)nn2)cc(OC)c1OC`, the 50% growth inhibitory concentration (GI50) is 30 µM in experiment [1]; 84 µM in experiment [2]; 33 µM in experiment [3]; greater than 100 µM in experiment [4]; 41 µM in experiment [5]; 26 µM in experiment [6].

Consider `O=[N+]([O-])c1ccc(-c2nc(CO[C@@H]3O[C@H](CSc4ncn[nH]4)[C@H]4OC5(CCCC5)O[C@@H]34)no2)cc1`, for which the GI50 in experiment [1] was found to be 20 µM; in experiment [2] it was 24 µM; in experiment [3], 10 µM; in experiment [4], 15 µM; in experiment [5] it was 20 µM; in experiment [6] it was 20 µM.

As to `COc1cc(-c2nc(CO[C@@H]3O[C@H](CSc4ncn[nH]4)[C@H]4OC5(CCCC5)O[C@@H]34)no2)cc(OC)c1OC`, the GI50 in experiment [1] was determined as 37 µM; in experiment [2] it was 34 µM; in experiment [3] it was 28 µM; in experiment [4], 36 µM; in experiment [5], 44 µM; in experiment [6] it was 42 µM.

The values are drawn from ChEMBL document CHEMBL4052770, “Synthesis and in vitro antiproliferative activities of (5-aryl-1,2,4-oxadiazole-3-yl) methyl d-ribofuranosides” (2017).
